Values joined by “and” are separate entries in the source; they are usually repeats but may differ in a detail not shown here. Identical values can stand only once. Active and inactive are the calls of the source. The rule behind the calls is not given here.
Test system: rodent lifetime carcinogenesis bioassay, tumor incidence TD50
Assay: chronic cancer bioassays in animals – CPDB, compiled studies (AID 1745844)

`ClC=C(Cl)Cl` was tested, and the carcinogen call (hamster, strain Syrian Golden, females, inhaled, site: any site (literature study), lesion: benign tumor, dosed 78 weeks, study length 130 weeks) was “negative (inactive)”, the TD50 (hamster, strain Syrian Golden, females, inhaled, site: any site (literature study), lesion: malignant tumor, dosed 78 weeks, study length 130 weeks) was 9220 mg/kg/day (inactive) and the carcinogen call (hamster, strain Syrian Golden, females, inhaled, site: liver, lesion: several types, types named in the paper, dosed 78 weeks, study length 130 weeks) was “negative (inactive)”. The TD50 (hamster, strain Syrian Golden, males, inhaled, site: any site (literature study), lesion: benign tumor, dosed 78 weeks, study length 130 weeks) was 5640 mg/kg/day (inactive), the carcinogen call (hamster, strain Syrian Golden, males, inhaled, site: any site (literature study), lesion: malignant tumor, dosed 78 weeks, study length 130 weeks) was “negative (inactive)” and the carcinogen call (hamster, strain Syrian Golden, males, inhaled, site: liver, lesion: several types, types named in the paper, dosed 78 weeks, study length 130 weeks) was “negative (inactive)”. The TD50 (mouse, strain B6C3F1, females, by gavage, site: any site (literature study), lesion: several types, types named in the paper, dosed 78 weeks, study length 90 weeks) was 1850 mg/kg/day, the TD50 (mouse, strain B6C3F1, females, by gavage, site: any site (literature study), lesion: several types, types named in the paper, dosed 103 weeks, study length 105 weeks) was 359 mg/kg/day and the TD50 (mouse, strain B6C3F1, females, by gavage, site: liver + multiple organs + spleen, lesion: malignant lymphoma, histiocytic type + malignant lymphoma, mixed type + malignant lymphoma, lymphocytic type + malignant lymph, dosed 103 weeks, study length 105 weeks) was 1350 mg/kg/day and 1470 mg/kg/day. It also gave a TD50 (mouse, strain B6C3F1, females, by gavage, site: liver, lesion: hepatocellular adenoma + hepatocellular carcinoma + neoplastic nodule, dosed 78 weeks, study length 90 weeks) of 1930 mg/kg/day, a TD50 (mouse, strain B6C3F1, females, by gavage, site: liver, lesion: hepatocellular adenoma + hepatocellular carcinoma + neoplastic nodule, dosed 103 weeks, study length 105 weeks) of 411 mg/kg/day and a TD50 (mouse, strain B6C3F1, females, by gavage, site: liver, lesion: hepatocellular adenoma + hepatocellular carcinoma, dosed 103 weeks, study length 105 weeks) of 411 mg/kg/day. It also gave a TD50 (mouse, strain B6C3F1, females, by gavage, site: liver, lesion: hepatocellular adenoma, dosed 103 weeks, study length 105 weeks) of 579 mg/kg/day, a TD50 (mouse, strain B6C3F1, females, by gavage, site: liver, lesion: hepatocellular carcinoma, dosed 78 weeks, study length 90 weeks) of 1930 mg/kg/day and a TD50 (mouse, strain B6C3F1, females, by gavage, site: liver, lesion: hepatocellular carcinoma, dosed 103 weeks, study length 105 weeks) of 673 mg/kg/day. It also gave a TD50 (mouse, strain B6C3F1, females, by gavage, site: lung, lesion: alveolar/bronchiolar adenoma + alveolar/bronchiolar carcinoma, dosed 78 weeks, study length 90 weeks) of 4350 mg/kg/day, a TD50 (mouse, strain B6C3F1, females, by gavage, site: lung, lesion: alveolar/bronchiolar adenoma + alveolar/bronchiolar carcinoma, dosed 103 weeks, study length 105 weeks) of 3850 mg/kg/day and a TD50 (mouse, strain B6C3F1, females, by gavage, site: lung, lesion: alveolar/bronchiolar adenoma, dosed 103 weeks, study length 105 weeks) of 2780 mg/kg/day. For the same compound, the TD50 (mouse, strain B6C3F1, females, by gavage, site: multiple organs, lesion: malignant lymphoma, lymphocytic type, dosed 103 weeks, study length 105 weeks) was 4880 mg/kg/day, the TD50 (mouse, strain B6C3F1, females, inhaled, site: any site (literature study), lesion: malignant tumor, dosed 78 weeks, study length 154 weeks) was 2080 mg/kg/day and the TD50 (mouse, strain B6C3F1, females, inhaled, site: any site (literature study), lesion: several types, types named in the paper, dosed 78 weeks, study length 154 weeks) was 1320 mg/kg/day. It also gave a TD50 (mouse, strain B6C3F1, females, inhaled, site: liver, lesion: hepatoma, dosed 78 weeks, study length 154 weeks) of 13600 mg/kg/day, a TD50 (mouse, strain B6C3F1, females, inhaled, site: lung, lesion: one or several types, types not named, dosed 78 weeks, study length 154 weeks) of 6320 mg/kg/day and a TD50 (mouse, strain B6C3F1, females, inhaled, site: thyroid gland, lesion: adenoma, dosed 78 weeks, study length 154 weeks) of 2.23e+06 mg/kg/day. The TD50 (mouse, strain B6C3F1, females, inhaled, site: thyroid gland, lesion: carcinoma, dosed 78 weeks, study length 154 weeks) was 131000 mg/kg/day, the TD50 (mouse, strain B6C3F1, males, by gavage, site: Harderian gland, lesion: adenoma, NOS + acinar-cell adenoma + papillary adenoma, dosed 103 weeks, study length 105 weeks) was 3830 mg/kg/day and the TD50 (mouse, strain B6C3F1, males, by gavage, site: any site (literature study), lesion: several types, types named in the paper, dosed 78 weeks, study length 90 weeks) was 553 mg/kg/day. It also gave a TD50 (mouse, strain B6C3F1, males, by gavage, site: any site (literature study), lesion: several types, types named in the paper, dosed 103 weeks, study length 105 weeks) of 332 mg/kg/day, a TD50 (mouse, strain B6C3F1, males, by gavage, site: liver, lesion: hepatocellular adenoma + hepatocellular carcinoma + neoplastic nodule, dosed 78 weeks, study length 90 weeks) of 421 mg/kg/day and a TD50 (mouse, strain B6C3F1, males, by gavage, site: liver, lesion: hepatocellular adenoma + hepatocellular carcinoma + neoplastic nodule, dosed 103 weeks, study length 105 weeks) of 239 mg/kg/day. It also gave a TD50 (mouse, strain B6C3F1, males, by gavage, site: liver, lesion: hepatocellular adenoma + hepatocellular carcinoma, dosed 103 weeks, study length 105 weeks) of 239 mg/kg/day, a TD50 (mouse, strain B6C3F1, males, by gavage, site: liver, lesion: hepatocellular adenoma, dosed 103 weeks, study length 105 weeks) of 855 mg/kg/day and a TD50 (mouse, strain B6C3F1, males, by gavage, site: liver, lesion: hepatocellular carcinoma, dosed 78 weeks, study length 90 weeks) of 421 mg/kg/day. For the same compound, the TD50 (mouse, strain B6C3F1, males, by gavage, site: liver, lesion: hepatocellular carcinoma, dosed 103 weeks, study length 105 weeks) was 294 mg/kg/day, the TD50 (mouse, strain B6C3F1, males, by gavage, site: lung, lesion: alveolar/bronchiolar adenoma + alveolar/bronchiolar carcinoma, dosed 78 weeks, study length 90 weeks) was 7160 mg/kg/day and the TD50 (mouse, strain B6C3F1, males, by gavage, site: lung, lesion: alveolar/bronchiolar adenoma + alveolar/bronchiolar carcinoma, dosed 103 weeks, study length 105 weeks) was 4250 mg/kg/day. For the same compound, the TD50 (mouse, strain B6C3F1, males, in drinking water, site: liver, lesion: hepatocellular adenoma, dosed 61 weeks, study length 61 weeks) was 502 mg/kg/day, the TD50 (mouse, strain B6C3F1, males, in drinking water, site: liver, lesion: hepatocellular carcinoma, dosed 61 weeks, study length 61 weeks) was 16 mg/kg/day and the TD50 (mouse, strain B6C3F1, males, inhaled, site: liver, lesion: angiosarcoma, dosed 78 weeks, study length 135 weeks) was 77000 mg/kg/day. For the same compound, the TD50 (mouse, strain B6C3F1, males, inhaled, site: liver, lesion: hepatoma, dosed 78 weeks, study length 135 weeks) was 4530 mg/kg/day, the TD50 (mouse, strain B6C3F1, males, inhaled, site: liver, lesion: hepatoma, dosed 78 weeks, study length 154 weeks) was 5030 mg/kg/day and the TD50 (mouse, strain Ha/ICR, females, by gavage, site: forestomach, lesion: one or several types, types not named, dosed 88 weeks, study length 88 weeks) was 41.3 mg/kg/day (inactive). The TD50 (mouse, strain Ha/ICR, males, by gavage, site: forestomach, lesion: one or several types, types not named, dosed 88 weeks, study length 88 weeks) was 16.9 mg/kg/day (inactive), the TD50 (mouse, strain Han:NMRI, females, inhaled, site: all sites, lesion: malignant lymphoma, dosed 78 weeks, study length 130 weeks) was 846 mg/kg/day and the carcinogen call (mouse, strain Han:NMRI, females, inhaled, site: any site (literature study), lesion: benign tumor, dosed 78 weeks, study length 130 weeks) was “negative (inactive)”. The TD50 (mouse, strain Han:NMRI, females, inhaled, site: any site (literature study), lesion: malignant tumor, dosed 78 weeks, study length 130 weeks) was 573 mg/kg/day (inactive), the carcinogen call (mouse, strain Han:NMRI, females, inhaled, site: liver, lesion: several types, types named in the paper, dosed 78 weeks, study length 130 weeks) was “negative (inactive)” and the carcinogen call (mouse, strain Han:NMRI, females, inhaled, site: lung, lesion: alveolar/bronchiolar adenoma, dosed 78 weeks, study length 130 weeks) was “negative (inactive)”. For the same compound, the carcinogen call (mouse, strain Han:NMRI, females, inhaled, site: lung, lesion: alveolar/bronchiolar carcinoma, dosed 78 weeks, study length 130 weeks) was “negative (inactive)”, the carcinogen call (mouse, strain Han:NMRI, males, inhaled, site: all sites, lesion: malignant lymphoma, dosed 78 weeks, study length 130 weeks) was “negative (inactive)” and the carcinogen call (mouse, strain Han:NMRI, males, inhaled, site: any site (literature study), lesion: benign tumor, dosed 78 weeks, study length 130 weeks) was “negative (inactive)”. The carcinogen call (mouse, strain Han:NMRI, males, inhaled, site: any site (literature study), lesion: malignant tumor, dosed 78 weeks, study length 130 weeks) was “negative (inactive)”, the carcinogen call (mouse, strain Han:NMRI, males, inhaled, site: liver, lesion: hepatocellular adenoma, dosed 78 weeks, study length 130 weeks) was “negative (inactive)” and the carcinogen call (mouse, strain Han:NMRI, males, inhaled, site: liver, lesion: hepatocellular carcinoma, dosed 78 weeks, study length 130 weeks) was “negative (inactive)”. For the same compound, the carcinogen call (mouse, strain Han:NMRI, males, inhaled, site: liver, lesion: hepatoma, benign, dosed 78 weeks, study length 130 weeks) was “negative (inactive)”, the carcinogen call (mouse, strain Han:NMRI, males, inhaled, site: lung, lesion: alveolar/bronchiolar adenoma, dosed 78 weeks, study length 130 weeks) was “negative (inactive)” and the carcinogen call (mouse, strain Han:NMRI, males, inhaled, site: lung, lesion: malignant tumor, dosed 78 weeks, study length 130 weeks) was “negative (inactive)”. It also gave a TD50 (mouse, strain ICR, females, inhaled, site: any site (literature study), lesion: several types, types named in the paper, dosed 104 weeks, study length 107 weeks) of 1900 mg/kg/day, a TD50 (mouse, strain ICR, females, inhaled, site: liver, lesion: adenoma, dosed 104 weeks, study length 107 weeks) of 42300 mg/kg/day and a TD50 (mouse, strain ICR, females, inhaled, site: lung, lesion: adenocarcinoma, dosed 104 weeks, study length 107 weeks) of 3380 mg/kg/day. For the same compound, the TD50 (mouse, strain ICR, females, inhaled, site: lung, lesion: several types, types named in the paper, dosed 104 weeks, study length 107 weeks) was 3370 mg/kg/day, the TD50 (mouse, strain Swiss, females, inhaled, site: any site (literature study), lesion: malignant tumor, dosed 78 weeks, study length 145 weeks) was 9840 mg/kg/day and the TD50 (mouse, strain Swiss, females, inhaled, site: any site (literature study), lesion: several types, types named in the paper, dosed 78 weeks, study length 145 weeks) was 9190 mg/kg/day. The TD50 (mouse, strain Swiss, females, inhaled, site: liver, lesion: hepatoma, dosed 78 weeks, study length 145 weeks) was 121000 mg/kg/day, the TD50 (mouse, strain Swiss, females, inhaled, site: lung, lesion: one or several types, types not named, dosed 78 weeks, study length 145 weeks) was 35400 mg/kg/day and the TD50 (mouse, strain Swiss, males, inhaled, site: any site (literature study), lesion: malignant tumor, dosed 78 weeks, study length 145 weeks) was 6320 mg/kg/day.

Source: PubChem BioAssay AID1745844 (Carcinogenic Potency Database (CPDB), 2022)
